The record followed here is patent US10759794B2, “2-phenyl-3-(piperazinomethyl)imidazo[1,2-A]pyridine derivatives as blockers of task-1 and task-2 channels, for the treatment of sleep-related breathing disorders” (BAYER PHARMA AKTIENGESELLSCHAFT, priority 2015, dated 2020).

Common to all, as to type: cell-based
Assay [1] addresses T1, human TASK-3 (Homo sapiens (Human), UniProt Q9NPC2). The assay is described as follows: Two-electrode voltage clamp analysis of human TASK-3 channels in Xenopus laevis oocytes. As for the experimental part: (§1) B-1. In Vitro Electrophysiological Analysis of the Human TASK-1 and TASK-3 Channels Via Two-Electrode Voltage Clamp Technique in Xenopus laevis Oocytes
(§2) Xenopus laevis oocytes were selected as described elsewhere in an exemplary manner [Decher et al., FEBS Lett. 492, 84-89 (2001)]. Subsequently, the oocytes were injected with 0.5-5 ng of a cRNA solution coding for TASK-1 or TASK-3. For the electrophysiological analysis of the channel proteins expressed in the oocytes, the two-electrode voltage clamp technique [Stühmer, Methods Enzymol. 207, 319-339 (1992)] was used. The measurements were carried out as described [Decher et al., FEBS Lett. 492, 84-89 (2001)] at room temperature (21-22° C.) using a Turbo TEC 10CD amplifier (NPI), recorded at 2 kHz and filtered with 0.4 kHz. Substance administration was performed using a gravitation-driven perfusion system. Here, the oocyte is located in a measuring chamber and exposed to the solvent stream of 10 ml/min. The level in the measuring chamber is monitored and regulated by sucking off the solution using a peristaltic pump.
(Two-electrode voltage clamp holds a large cell at a set potential and records current.)

Assay [2] addresses T2, human TASK-1 (Homo sapiens (Human), UniProt O14649). The assay is described as follows: Inhibition of recombinant TASK-1 in stably transfected CHO cells (voltage-sensitive dye, FLIPR). As for the experimental part:
(§3) B-2. Inhibition of Recombinant TASK-1 and TASK-3 In Vitro
(§4) The investigations on the inhibition of the recombinant TASK-1 and TASK-3 channels were carried out using stably transfected CHO cells. Here, the compounds according to the invention were tested with administration of 40 mM of potassium chloride in the presence of a voltage-sensitive dye using the method described in detail in the following references [Whiteaker et al., Validation of FLIPR membrane potential dye for high-throughput screening of potassium channel modulators, J. Biomol. Screen. 6 (5), 305-312 (2001); Molecular Devices FLIPR Application Note: Measuring membrane potential using the FLIPR® membrane potential assay kit on Fluorometric Imaging Plate Reader (FLIPR®) systems, http://www.moleculardevices.com/reagents-supplies/assay-kits/ion-channels/flipr-membrane-potential-assay-kits]. The activity of the test substances was determined as their ability to inhibit a depolarization induced in the recombinant cells by 40 mM potassium chloride. The concentration which can block half of this depolarization is referred to as IC50.

Assay [3] addresses T2, human TASK-1. Description: Two-electrode voltage clamp analysis of human TASK-1 channels in Xenopus laevis oocytes. How it is done:
as §1, §2

Assay [4] concerns the target T1, human TASK-3. Description: Inhibition of recombinant TASK-3 in stably transfected CHO cells (voltage-sensitive dye, FLIPR). How it is done:
as §3, §4

The mark [5] stands for this setting: Xenopus laevis oocytes, two-electrode voltage clamp, room temperature, Table 1A.
The mark [6] stands for this setting: depolarization induced by 40 mM potassium chloride, Table 2A.
[7] abbreviates: 40 mM potassium chloride, comparative compounds, Table 2B.
The mark [8] stands for this setting: oocytes, voltage clamp, Table 1B.
Where [9] appears, read: oocytes, voltage clamp, comparative compounds, Table 1B.

SMILES strings stand for the structures.

T2 sequence (O14649 whole entry): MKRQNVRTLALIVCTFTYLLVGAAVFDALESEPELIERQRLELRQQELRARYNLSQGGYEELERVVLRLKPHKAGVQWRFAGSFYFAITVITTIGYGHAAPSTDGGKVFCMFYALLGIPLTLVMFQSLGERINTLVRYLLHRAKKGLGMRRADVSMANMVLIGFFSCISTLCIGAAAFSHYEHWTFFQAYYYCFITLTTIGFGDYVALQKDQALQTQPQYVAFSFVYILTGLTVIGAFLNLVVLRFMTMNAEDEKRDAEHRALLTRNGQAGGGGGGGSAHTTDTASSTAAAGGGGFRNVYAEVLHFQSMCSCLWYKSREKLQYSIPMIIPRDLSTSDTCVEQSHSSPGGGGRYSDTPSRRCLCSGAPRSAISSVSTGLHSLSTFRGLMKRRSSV
T1 sequence (Q9NPC2 whole entry): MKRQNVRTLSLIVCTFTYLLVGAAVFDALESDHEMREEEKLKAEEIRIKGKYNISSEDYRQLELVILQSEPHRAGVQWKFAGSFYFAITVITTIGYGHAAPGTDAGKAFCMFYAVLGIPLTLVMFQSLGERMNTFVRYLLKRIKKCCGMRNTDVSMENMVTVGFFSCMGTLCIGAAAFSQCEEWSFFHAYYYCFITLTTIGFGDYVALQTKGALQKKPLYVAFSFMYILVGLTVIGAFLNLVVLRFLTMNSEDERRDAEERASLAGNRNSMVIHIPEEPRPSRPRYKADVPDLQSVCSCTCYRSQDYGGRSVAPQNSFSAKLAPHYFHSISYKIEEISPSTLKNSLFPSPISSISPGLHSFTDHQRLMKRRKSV

In general, IC50 refers to the concentration at which inhibition is half-maximal. As for `O=C(C1CCCC1)N1CCN(Cc2c(-c3ccc(Br)cc3)nc3ccccn23)CC1` [Example 1, (4-{[2-(4-Bromophenyl)imidazo[,2-a]pyridin-3-yl]methyl}piperazin-1-yl)(cyclopentyl)methanone], the IC50 worked out at 1.04 ± 0.23 nM in assay [1] (setting [5]), 77 nM in assay [2] (setting [6]), 7.9 ± 0.5 nM in assay [3] (setting [5]) and 17 nM in assay [4] (setting [6]).

Take `O=C(C1CCCC1)N1CCN(Cc2c(-c3ccc(Cl)cc3)nc3ccccn23)CC1` [Example 2, (4-{[2-(4-Chlorophenyl)imidazo [1,2-a]pyridin-3-yl]methyl}piperazin-1-yl)(cyclopentyl)methanone]: the IC50 in assay [1] (setting [5]) worked out at 21.8 ± 2.1 nM; in assay [2] (setting [6]) it was 63 nM; in assay [3] (setting [5]), 2.8 ± 1.1 nM; in assay [4] (setting [6]), 20 nM.

With `COc1cccc(C(=O)N2CCN(Cc3c(-c4ccc(Cl)cc4)nc4ccccn34)CC2)n1` [Example 3, (4-{[2-(4-Chlorophenyl)imidazo [1,2-a]pyridin-3-yl]methyl}piperazin-1-yl)(6-methoxypyridin-2-yl)methanone], the IC50 amounted to 27.9 ± 4 nM in assay [1] (setting [5]), 139 nM in assay [2] (setting [6]), 4.2 ± 0.6 nM in assay [3] (setting [5]) and 28 nM in assay [4] (setting [6]).

Regarding `O=C(c1ccccc1F)N1CCN(Cc2c(-c3ccc(Br)cc3)nc3ccccn23)CC1` [Example 4, (4-{[2-(4-Bromophenyl)imidazo [1,2-a]pyridin-3-yl]methyl}piperazin-1-yl)(2-fluorophenyl)methanone], the IC50 in assay [1] (setting [5]) amounted to 15 ± 2.1 nM; in assay [2] (setting [6]), 172 nM; in assay [3] (setting [5]), 9.7 ± 0.9 nM; in assay [4] (setting [6]), 46 nM.

`CC(C)Oc1cccc(C(=O)N2CCN(Cc3c(-c4ccc(Cl)cc4)nc4ccccn34)CC2)n1` [Example 39]: the IC50 was found to be 6.2 ± 1.1 nM in assay [1] (setting [5]), 440 nM in assay [2] (setting [6]), 13.4 ± 0.9 nM in assay [3] (setting [5]) and 56 nM in assay [4] (setting [6]).

`COc1cccc(C(=O)N2CCN(Cc3c(-c4ccc(Br)cc4)nc4ccccn34)CC2)n1` [Example 47]: the IC50 came out at 2.3 ± 0.3 nM in assay [1] (setting [5]), 140 nM in assay [2] (setting [6]), 4.9 ± 0.4 nM in assay [3] (setting [5]) and 18 nM in assay [4] (setting [6]).

Consider `CC(C)c1ccc(-c2nc3ccccn3c2CN2CCN(C(=O)C3CCCC3)CC2)cc1` [Example 54], for which the IC50 is 38.2 ± 1.4 nM in assay [1] (setting [5]), 479 nM in assay [2] (setting [6]), 4.3 ± 1.3 nM in assay [3] (setting [5]) and 225 nM in assay [4] (setting [6]).

For the molecule `COc1cccc(C(=O)N2CCN(Cc3c(-c4ccc(C(C)C)cc4)nc4ccccn34)CC2)n1` [Example 55], the IC50 in assay [1] (setting [5]) is 79.6 ± 10.8 nM; in assay [2] (setting [6]), 490 nM; in assay [3] (setting [5]), 45 ± 6.7 nM; in assay [4] (setting [6]), 141 nM.

`O=C(c1ccncc1)N1CCN(Cc2c(-c3ccc(Cl)cc3)nc3ccc(C4CC4)cn23)CC1` [WO 2014/187922 Example 196, reference compound]: the IC50 in assay [2] (setting [7]) and in assay [4] (setting [7]) was 30000 nM in each case.

For the molecule `COc1cccc(-c2nc3ccccn3c2CN2CCN(C(=O)C3CCC3)CC2)c1` [WO 2014/187922 Example 208, reference compound], the IC50 in assay [2] (setting [7]) and in assay [4] (setting [7]) was 30000 nM throughout.

Consider `O=C(c1cnccn1)N1CCN(Cc2c(-c3ccc(Cl)cc3)nc3ccc(C4CC4)cn23)CC1` [WO 2014/187922 Example 263, reference compound], for which the IC50 in assay [2] (setting [7]) was 30000 nM; in assay [4] (setting [7]), 5700 nM.

In general, inhibition refers to the change of the read-out against control, counted positive when it falls. Low readings indicate little suppression, high ones strong suppression. Consider `O=C(c1ccccc1Cl)N1CCN(Cc2c(-c3ccc(Cl)cc3)nc3ccc(-c4ccccc4)cn23)CC1` [drawing 122], for which the figures for the inhibition at 1 µM in assay [1] (setting [8]) and in assay [3] (setting [8]) were 9.3 ± 3.4% and 6.3 ± 1.4%, respectively. The inhibition at 10 µM in assay [1] (setting [8]) was determined as 19.4 ± 4.6%; in assay [3] (setting [8]), 16.9 ± 3.2%. Further, the IC50 in assay [1] (setting [9]) and in assay [3] (setting [9]) was greater than 30000 nM throughout.

For `O=C(c1cccc(F)c1)N1CCN(Cc2c(-c3ccc(Cl)cc3)nc3ccc(C4CC4)cn23)CC1` [drawing 123], the inhibition at 1 µM in assay [1] (setting [8]) came to 29.7 ± 2.6%; in assay [3] (setting [8]) it was 30 ± 3.3%. Also, the inhibition at 10 µM turned out to be 56.1 ± 4.6% in assay [1] (setting [8]) and 59.9 ± 1.7% in assay [3] (setting [8]). Besides, the IC50 in assay [1] (setting [9]) and in assay [3] (setting [9]) was greater than 1000 nM throughout.

With `O=C(c1ccncc1)N1CCN(Cc2c(-c3ccc(Cl)cc3)nc3ccc(C4CC4)cn23)CC1` [drawing 124], the results for the inhibition at 1 µM in assay [1] (setting [8]) and in assay [3] (setting [8]) were 12.1 ± 1.8% and 47.2 ± 1.5%, respectively. The inhibition at 10 µM amounted to 56.1 ± 2.3% in assay [1] (setting [8]) and 49.9 ± 3.3% in assay [3] (setting [8]). Further, the IC50 in assay [1] (setting [9]) and in assay [3] (setting [9]) was greater than 1000 nM each time.

In the case of `COc1cccc(-c2nc3ccccn3c2CN2CCN(C(=O)C3CCC3)CC2)c1` [drawing 125], the results for the inhibition at 1 µM in assay [1] (setting [8]) and in assay [3] (setting [8]) were 34.6 ± 2.7% and 49.6 ± 6.7%, respectively. For the same molecule, the values for the inhibition at 10 µM in assay [1] (setting [8]) and in assay [3] (setting [8]) were 73.6 ± 3.7% and 75 ± 3.5%, respectively. In addition, the IC50 in assay [1] (setting [9]) and in assay [3] (setting [9]) was greater than 1000 nM throughout.

As to `O=C(c1cnccn1)N1CCN(Cc2c(-c3ccc(Cl)cc3)nc3ccc(C4CC4)cn23)CC1` [drawing 126], the inhibition at 1 µM came to 8.1 ± 2.6% in assay [1] (setting [8]) and 27.7 ± 4.5% in assay [3] (setting [8]). The inhibition at 10 µM in assay [1] (setting [8]) is 48.2 ± 4.3%; in assay [3] (setting [8]) it was 55.2 ± 1.7%. In addition, the IC50 in assay [1] (setting [9]) was greater than 10000 nM; in assay [3] (setting [9]), greater than 1000 nM.
